This note sets out measurements from patent publication US4752614A, “Pharmaceutical compositions of tellerium and selenium compounds for the induction of in vivo and in vitro production of cytokines” (Bar-Ilan University, priority 1987, dated 1988).

The series has as its system fibrosarcoma cells. Put plainly: Survival of mice with methylcholanthrene induced fibrosarcoma (Example 6). Type of series: in vivo, Balb-c mice. More on the design: mortality: concentration or dose not given beside the values. As for the experimental part: A solution of 0.2% of methylcholanthrene (MCA, Sigma, USA) was prepared by dissolving 2 mg of the carcinogen in 1.0 ml of olive oil (Ref: Petra, et al., Cancer 19:302, 1961) with continuous shaking at 37° C. for 30 minutes. Six to eight week old C3 Heb mice were injected with 0.6 mg MCA/0.3 ml of solvent/mouse subcutaneously in the rear right thigh. After 21-30 days the induced tumor was surgically removed and pushed through 60 mesh stainless nets to obtain isolated cells. These cells were then further injected subcuteneously into the rear right thigh of C3 Heb mice 5 to 8 weeks of age, at a concentration of 10^6 cells/0.3 ml PBS/mouse/hypodermic needle 25 gauge, 5/8" to further induce tumor formation.
Balb-c mice, age 7 weeks were injected with methylcholanthrene to induce the formation of fibrosarcoma cells according to the procedure of Example 5. The test animals were divided into two groups.
(a) control (0.2 IP of 40% DMSO and 60% PBS)

For `Cl[TeH]1(Cl)(Cl)OCCO1` [Example 1], the “% Survival” value runs as follows: (10 μg IP, day 4 after innoculation) 100%; (10 μg IP, day 9) 100%; (10 μg IP, day 23) 100%; (10 μg IP, day 30) 100%; (10 μg IP, day 37) 100%; (day 39, start of increased dosage regimen) 100%. For the same compound, the “% Survival” value runs as follows: (day 41, increased dosage) 100%; (day 43, increased dosage) 100%; (day 46, increased dosage) 80%; (day 48, increased dosage) 80%; (day 50, increased dosage) 80%; (day 53, increased dosage) 60%. The “% Survival” value reads like this: (day 60, increased dosage) 40%; (day 67) 20%; (day 68) 0%. Moreover, under “group (b), until just after the increased dosage regimen (day 39)”, the mortality is recorded as 0%.

The term mortality denotes the percentage killed.
